According to patent US20020137929A1, “1 - (3-heterocyclylphenyl) isothiourea, -isourea, -guanidine and -amidine herbicidal agents” (Intellectual Property Department, BASF Aktiengesellschaft, priority 1998, published 2002):

Assays:
CASOB (Sicklepod) = test: Postemergence herbicidal evaluation; type: in vivo, Cassia obtusifolia; conditions: for CASOB herbicidal rating: postemergence
In short: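 Rate range approx. 0.0156–0.500 kg/ha. Foliar application at 40 psi to ~2-week seedlings; surfactant 0.5% TWEEN 20 in 50/50 acetone/water. Evaluation 4–5 wk post-treatment by 0–9 visual injury score, means of replicate tests.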

[1] = system: GLXMAW (Soybean, Williams); test: Preemergence herbicidal evaluation; type: in vivo, Glycine max, (L.) Merr. cv Williams; conditions: rated 4-5 weeks after treatment
In short: (§1)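 Scores (0–9) reflect visual comparison with control plants for stand, vigor, malformation, size and chlorosis. Compound was applied to the soil after sowing, before emergence, as an aqueous acetone spray (about 0.0156–0.500 kg/ha), and cups were kept in a greenhouse for 4–5 weeks.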

ORYSAT (Rice, Tebonnet) [2] = test: Preemergence herbicidal evaluation; type: in vivo, Oryza sativa, (L.) Tebonnet; conditions: rated 4-5 weeks after treatment
In short: as §1

[3] = system: TRZAWR (Wheat, Winter, cv Riband); test: Preemergence herbicidal evaluation; type: in vivo, Triticum aestivum; conditions: rated 4-5 weeks after treatment
In short: as §1

[4] = system: SAGPY (Arrowhead (Pygmaea)); test: Preemergence weed control under flooded paddy conditions; type: in vivo, Sagittaria pygmaea; conditions: rated 3-4 weeks after treatment
In short: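 Values are visual 0-9 scores against a control for a preemergence application into paddy flood water at about 0.0313 to 0.500 kg/ha. Greenhouse duration was three to four weeks.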

ORYSAT (Rice, Tebonnet) [5] = test: Rice tolerance to post-transplant applications, flooded paddy conditions (Table III); type: in vivo, Oryza sativa, (L.) Tebonnet
In short: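 Two ten-day-old Tebonnet seedlings transplanted into flooded silt loam (water 1.5 to 3 cm above soil); three days later the water surface was treated with compound in aqueous/acetone 50/50 at about 0.0313 to 0.500 kg/ha. Visual 0-9 injury rating versus control after three to four weeks in greenhouse.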

MOOVA (Monochoria) = test: Postemergence weed control under flooded paddy conditions; type: in vivo, Monochoria vaginalis; conditions: postemergence weeds, 3-4 weeks after treatment
In short: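 With weeds 3 to 5 cm tall and rice at the 1.5 to 2.5 leaf stage, containers were flooded and water held 1.5 to 3 cm above soil. Compounds in 50/50 v/v aqueous/acetone went into the flood water at about 0.0313 to 0.500 kg/ha a.i. Effects were visually rated 0–9 against controls after three to four weeks in the greenhouse.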

ORYSAT (Rice, Tebonnet) [6] = test: Rice tolerance to post-transplant applications, flooded paddy conditions (Table IV); type: in vivo, Oryza sativa, (L.) Tebonnet
In short: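 Herbicidal effect is judged by eye on a 0–9 scale versus control, 3–4 weeks after dosing. Dosing is into flood water kept 1.5–3 cm over the soil, at about 0.0313–0.500 kg/ha in aqueous/acetone 50/50 v/v, on 3–5 cm weeds and 1.5–2.5-leaf rice seedlings.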

Structure (SMILES): C[C@@H](C(=O)O)N1C(=O)CS/C1=N/c1cc(-n2c(=O)cc(C(F)(F)F)n(C)c2=O)c(F)cc1Cl [Compound 51, 2-{{2-Chloro-5-[3,6-dihydro-3-methyl-2,6-dioxo-4-(trifluoromethyl)-1(2H)-pyrimidinyl]-4-fluoro-phenyl}imino}-α-methyl-4-oxo-3-thiazolidineacetic acid, L-]
- Postemergence herbicidal rating CASOB (CASOB (Sicklepod); Rate 0.0158 kg/ha): 2.0
- Postemergence herbicidal rating CASOB (CASOB (Sicklepod); Rate 0.0315 kg/ha): 2.0
- Postemergence herbicidal rating CASOB (CASOB (Sicklepod); Rate 0.0630 kg/ha): 7.0
- Preemergence herbicidal rating GLXMAW ([1]; rate 0.0156 kg/ha): 0.0
- Preemergence herbicidal rating GLXMAW ([1]; rate 0.0313 kg/ha): 0.0
- Preemergence herbicidal rating GLXMAW ([1]; rate 0.0625 kg/ha): 1.0
- Preemergence herbicidal rating GLXMAW ([1]; rate 0.1250 kg/ha): 1.0
- Preemergence herbicidal rating GLXMAW ([1]; rate 0.2500 kg/ha): 7.0
- Preemergence herbicidal rating ORYSAT (ORYSAT (Rice, Tebonnet) [2]; rate 0.0156 kg/ha): 0.0
- Preemergence herbicidal rating ORYSAT (ORYSAT (Rice, Tebonnet) [2]; rate 0.0313 kg/ha): 1.0
- Preemergence herbicidal rating ORYSAT (ORYSAT (Rice, Tebonnet) [2]; rate 0.0625 kg/ha): 1.0
- Preemergence herbicidal rating ORYSAT (ORYSAT (Rice, Tebonnet) [2]; rate 0.1250 kg/ha): 1.0
- Preemergence herbicidal rating ORYSAT (ORYSAT (Rice, Tebonnet) [2]; rate 0.2500 kg/ha): 7.0
- Preemergence herbicidal rating TRZAWR ([3]; rate 0.0156 kg/ha): 0.0
- Preemergence herbicidal rating TRZAWR ([3]; rate 0.0313 kg/ha): 0.0
- Preemergence herbicidal rating TRZAWR ([3]; rate 0.0625 kg/ha): 0.0
- Preemergence herbicidal rating TRZAWR ([3]; rate 0.1250 kg/ha): 2.0
- Preemergence herbicidal rating TRZAWR ([3]; rate 0.2500 kg/ha): 6.0
- Herbicidal rating SAGPY ([4]; 0.0625 kg/ha): 0.0
- Herbicidal rating SAGPY ([4]; 0.1250 kg/ha): 0.0
- Herbicidal rating SAGPY ([4]; 0.2500 kg/ha): 0.0
- Herbicidal rating ORYSAT (rice tolerance) (ORYSAT (Rice, Tebonnet) [5]; in vivo): 0.0
- Herbicidal rating MOOVA (MOOVA (Monochoria); rate 0.0625 kg/ha): 3.0
- Herbicidal rating MOOVA (MOOVA (Monochoria); rate 0.1250 kg/ha): 4.0
- Herbicidal rating MOOVA (MOOVA (Monochoria); rate 0.2500 kg/ha): 4.0
- Herbicidal rating ORYSAT (rice tolerance) (ORYSAT (Rice, Tebonnet) [6]; in vivo): 0.0

Structure (SMILES): CCOC(=O)/C=C1/S/C(=N/c2cc(-n3c(=O)cc(C(F)(F)F)n(C)c3=O)c(F)cc2Cl)N(CC(=O)OCC)C1=O [Compound 14]
- CASOB herbicidal rating (CASOB (Sicklepod); rate 0.0156 kg/ha): 0.0
- CASOB herbicidal rating (CASOB (Sicklepod); rate 0.0313 kg/ha): 2.0
- CASOB herbicidal rating (CASOB (Sicklepod); rate 0.0625 kg/ha): 2.0
- CASOB herbicidal rating (CASOB (Sicklepod); rate 0.1250 kg/ha): 9.0
- GLXMAW preemergence herbicidal rating ([1]; rate 0.0313 kg/ha): 0.0
- GLXMAW preemergence herbicidal rating ([1]; rate 0.0625 kg/ha): 0.0
- GLXMAW preemergence herbicidal rating ([1]; rate 0.1250 kg/ha): 2.0
- GLXMAW preemergence herbicidal rating ([1]; rate 0.2500 kg/ha): 3.0
- GLXMAW preemergence herbicidal rating ([1]; rate 0.5000 kg/ha): 6.0
- ORYSAT preemergence herbicidal rating (ORYSAT (Rice, Tebonnet) [2]; rate 0.0313 kg/ha): 0.0
- ORYSAT preemergence herbicidal rating (ORYSAT (Rice, Tebonnet) [2]; rate 0.0625 kg/ha): 0.0
- ORYSAT preemergence herbicidal rating (ORYSAT (Rice, Tebonnet) [2]; rate 0.1250 kg/ha): 0.5
- ORYSAT preemergence herbicidal rating (ORYSAT (Rice, Tebonnet) [2]; rate 0.2500 kg/ha): 1.0
- ORYSAT preemergence herbicidal rating (ORYSAT (Rice, Tebonnet) [2]; rate 0.5000 kg/ha): 3.0
- TRZAWR preemergence herbicidal rating ([3]; rate 0.0313 kg/ha): 0.0
- TRZAWR preemergence herbicidal rating ([3]; rate 0.0625 kg/ha): 0.0
- TRZAWR preemergence herbicidal rating ([3]; rate 0.1250 kg/ha): 0.0
- TRZAWR preemergence herbicidal rating ([3]; rate 0.2500 kg/ha): 0.0
- Herbicidal rating SAGPY ([4]; 0.0313 kg/ha): 0.0
- Herbicidal rating SAGPY ([4]; 0.0625 kg/ha): 0.0
- Herbicidal rating SAGPY ([4]; 0.1250 kg/ha): 0.0
- Herbicidal rating SAGPY ([4]; 0.2500 kg/ha): 0.0
- Herbicidal rating ORYSAT (rice tolerance) (ORYSAT (Rice, Tebonnet) [5]; 0.0313 kg/ha, post-transplant rice, flooded paddy, rated 3-4 weeks after treatment): 0.0
- Herbicidal rating ORYSAT (rice tolerance) (ORYSAT (Rice, Tebonnet) [5]; 0.0625 kg/ha, post-transplant rice, flooded paddy, rated 3-4 weeks after treatment): 0.5
- Herbicidal rating ORYSAT (rice tolerance) (ORYSAT (Rice, Tebonnet) [5]; 0.1250 kg/ha, post-transplant rice, flooded paddy, rated 3-4 weeks after treatment): 1.0
- Herbicidal rating ORYSAT (rice tolerance) (ORYSAT (Rice, Tebonnet) [5]; 0.2500 kg/ha, post-transplant rice, flooded paddy, rated 3-4 weeks after treatment): 0.0
- Herbicidal rating MOOVA (MOOVA (Monochoria); rate 0.0313 kg/ha): 6.8
- Herbicidal rating MOOVA (MOOVA (Monochoria); rate 0.0625 kg/ha): 6.8
- Herbicidal rating MOOVA (MOOVA (Monochoria); rate 0.1250 kg/ha): 6.8
- Herbicidal rating MOOVA (MOOVA (Monochoria); rate 0.2500 kg/ha): 4.5
- Herbicidal rating ORYSAT (rice tolerance) (ORYSAT (Rice, Tebonnet) [6]; rate 0.0313 kg/ha, flooded paddy, post-transplant rice, 3-4 weeks after treatment): 0.0
- Herbicidal rating ORYSAT (rice tolerance) (ORYSAT (Rice, Tebonnet) [6]; rate 0.0625 kg/ha, flooded paddy, post-transplant rice, 3-4 weeks after treatment): 0.3
- Herbicidal rating ORYSAT (rice tolerance) (ORYSAT (Rice, Tebonnet) [6]; rate 0.1250 kg/ha, flooded paddy, post-transplant rice, 3-4 weeks after treatment): 0.5
- Herbicidal rating ORYSAT (rice tolerance) (ORYSAT (Rice, Tebonnet) [6]; rate 0.2500 kg/ha, flooded paddy, post-transplant rice, 3-4 weeks after treatment): 0.0
